Measured values published in patent US9198902B2, “1,4-dihydropyridine-3,5-dicarboxylate derivatives and preparation and use thereof” (Xuanzhu Pharma Co., Ltd., priority 2011, dated 2015).

How the values were obtained:
SHRs = experiment: In vivo hypotensive activity in SHRs, DSI implant-type remote blood pressure measurement; set-up: species or system rats; settings: male SHRs, 10 mg/kg po, monitored 24 hours
Procedure: The in vivo hypotensive activity assay was conducted according to DSI experimental procedure with reference to page 56 of WO 2009/056934 A1. The agents to be tested, lercanidipine, barnidipine, amlodipine, azelnidipine, efonidipine and manidipine, were accurately weighed. Each agent was dissolved in DMSO. To the resulting solution was added 50% of the corresponding volume of PEG400 so that the final concentration of each agent was 1 mg/ml, and the final concentration of DMSO was 3%. […] Each compound was dissolved in DMSO. […] The compound to be tested, Compound 15, was accurately weighed. This compound was dissolved in DMSO. […] The compound to be tested, Compound 16 (optical activity)+108.34° and Compound 17 (optical activity optical activity)+36.4°, were accurately weighed. […] The test for hypotensive effect: Male SHRs were subjected to an abdominal aorta implantation using an implant, and used in the test after 7-10 days of recovery. The administration was an intragastric administration. One hour before the administration, the measured blood pressure was used as the pre-administration basic blood pressure value. After the administration, SHRs, allowed free access to the diet, were continuously monitored with a DSI implant-type blood pressure remote measurement system for 24 hours.

[1] = system: SHRs (spontaneous hypertensive rats); experiment: In vivo hypotensive activity in SHRs, tail-pinch method; settings: male SHRs, 10 mg/kg po; for Max ΔMAP (mmHg ± SEM): measured 1-24 h after administration
Procedure: The in vivo hypotensive activity assay was conducted according to the tail-pinch method with reference to Folia pharmacol. Japon. 97, 115-126 (1991).
The agents to be tested, lercanidipine, barnidipine, amlodipine, azelnidipine, efonidipine and manidipine, were accurately weighed respectively. Each agent was dissolved in DMSO. To the resulting solution was added 50% of the corresponding volume of PEG400 so that the final concentration of each agent was 1 mg/ml, and the final concentration of DMSO was 3%.
The compounds to be tested, Compound 18, Compound 21, Compound 22, Compound 23, and Compound 26, were accurately weighed respectively. Each compound was dissolved in DMSO. To the resulting solution was added 50% of the corresponding volume of PEG400 so that the final concentration of each compound was 1 mg/ml, and the final concentration of DMSO was 3%.
The compounds to be tested, Compound 19 and Compound 20, were accurately weighed respectively. Each compound was suspended in 0.5% MC so that the final concentration of each compound was 1 mg/ml.
The test for hypotensive effect: Male SHRs (spontaneous hypertensive rats) were randomly allocated into a control group and an administration group. The administration was an intragastric administration. One hour before the administration, the measured blood pressure was used as the pre-administration basic blood pressure value. After the administration, the contractive pressure, the heart rate and the mean arterial pressure of SHRs at six time points, i.e. 1, 2, 4, 6, 8 and 24 hours after the administration, were measured with a Softron BP-98A non-invasive blood pressure instrument respectively.

Human Cav3.2 = Human Cav3.2 (Homo sapiens, UniProt O95180); experiment: T-type calcium ion channel inhibition, FLIPR method; assay type: cell-based; settings: Human Cav3.2 in stable HEK-293 cells, FLIPR Calcium 4 No-Wash kit
Procedure: T-type tests for Compound 19 and Compound 20 were assigned to Chan Test Corporation, and conducted according to the FLIPR experimental procedure as follows.
It was done with reference to the method disclosed on page 48 of WO 2009/056934 A1.
Samples were weighed accurately and diluted in a 3-fold stepwise dilution so that the final concentrations were as follows: 100 μM, 30 μM, 10 μM, 3 μM, 1 μM, 0.3 μM, 0.1 μM, 0.03 μM, 0.01 μM, 0.003 μM.
T-type test: Human Cav3.2 was cloned in stable HEK-293 cells, and then the operation was conducted with FLIPR Calcium 4 No-Wash kit. The cell medium was removed. To an HEPES solution free of calcium ion was added 20 μL dye to dye for 30 minutes at a temperature of 37° C. This buffer free of calcium ion included NaCl, 137 mM; KCl, 0.5 mM; MgCl2 mM, 1 mM; HEPES, 10 mM; glucose, 10 mM. The pH value was adjusted to 7.4 with NaOH. After 30 minutes, the buffer was placed at room temperature for 30 minutes. Then 5 μL of compound to be tested, solvent or blank control were added. The compound was formulated with a buffer containing calcium ion, said buffer including KCl, 135 mM; CaCl2, 10.8 mM; MgCl2, 1 mM; HEPES, 10 mM; glucose, 10 mM. The collected fluorescence values were analyzed and the inhibition ratios were calculated.

[2] = biological target: L-type calcium ion channels (Cavia porcellus, UniProt O35505); experiment: L-type calcium ion channel inhibition, whole cell patch-clamp (electrophysiological method); assay type: cell-based; settings: left ventricle muscle cells of guinea pigs, room temperature
Excerpt: 2. Test for L- and T-Type Calcium Ion Channel Inhibitors
This experiment was assigned to HD Biosciences Corporation (Shanghai) and conducted with an electrophysiological method.
It was done with reference to the method as disclosed by Jung-Ha Lee, et. al., “Identification of T-Type α1H Ca^2+ Channels (Cav3.2) in Major Pelvic Ganglion Neurons”. J Neurophysiol 87:2844-2850, 2002.
Test samples were weighed accurately and diluted in a 3-fold stepwise dilution so that the final concentrations were as follows:
L-type test: Left ventricle muscle cells were separated from guinea pigs. The cells were used in the experiment in eight hours. The ionic current of a single cell was recorded by applying the whole cell patch-clamp technique at room temperature, wherein the clamp current was −80 mV, and the pulse interval was 10 s. The inward current (the activiation was started from 0 mV) is the L-type calcium current (ICa,L).
The electrode inner liquid (mM): CsCl 120, TEA-Cl 20, CaCl2 1, EGTA-CsOH 11, Hepes 10, Mg-ATP 5, pH7.3;
The electrode outer liquid (mM): NaCl 135, CsCl 5.4, CaCl2 1.8, MgCl2 1, Hepes 5, glucose 10, pH7.4.

Sequence of L-type calcium ion channels (O35505 whole entry): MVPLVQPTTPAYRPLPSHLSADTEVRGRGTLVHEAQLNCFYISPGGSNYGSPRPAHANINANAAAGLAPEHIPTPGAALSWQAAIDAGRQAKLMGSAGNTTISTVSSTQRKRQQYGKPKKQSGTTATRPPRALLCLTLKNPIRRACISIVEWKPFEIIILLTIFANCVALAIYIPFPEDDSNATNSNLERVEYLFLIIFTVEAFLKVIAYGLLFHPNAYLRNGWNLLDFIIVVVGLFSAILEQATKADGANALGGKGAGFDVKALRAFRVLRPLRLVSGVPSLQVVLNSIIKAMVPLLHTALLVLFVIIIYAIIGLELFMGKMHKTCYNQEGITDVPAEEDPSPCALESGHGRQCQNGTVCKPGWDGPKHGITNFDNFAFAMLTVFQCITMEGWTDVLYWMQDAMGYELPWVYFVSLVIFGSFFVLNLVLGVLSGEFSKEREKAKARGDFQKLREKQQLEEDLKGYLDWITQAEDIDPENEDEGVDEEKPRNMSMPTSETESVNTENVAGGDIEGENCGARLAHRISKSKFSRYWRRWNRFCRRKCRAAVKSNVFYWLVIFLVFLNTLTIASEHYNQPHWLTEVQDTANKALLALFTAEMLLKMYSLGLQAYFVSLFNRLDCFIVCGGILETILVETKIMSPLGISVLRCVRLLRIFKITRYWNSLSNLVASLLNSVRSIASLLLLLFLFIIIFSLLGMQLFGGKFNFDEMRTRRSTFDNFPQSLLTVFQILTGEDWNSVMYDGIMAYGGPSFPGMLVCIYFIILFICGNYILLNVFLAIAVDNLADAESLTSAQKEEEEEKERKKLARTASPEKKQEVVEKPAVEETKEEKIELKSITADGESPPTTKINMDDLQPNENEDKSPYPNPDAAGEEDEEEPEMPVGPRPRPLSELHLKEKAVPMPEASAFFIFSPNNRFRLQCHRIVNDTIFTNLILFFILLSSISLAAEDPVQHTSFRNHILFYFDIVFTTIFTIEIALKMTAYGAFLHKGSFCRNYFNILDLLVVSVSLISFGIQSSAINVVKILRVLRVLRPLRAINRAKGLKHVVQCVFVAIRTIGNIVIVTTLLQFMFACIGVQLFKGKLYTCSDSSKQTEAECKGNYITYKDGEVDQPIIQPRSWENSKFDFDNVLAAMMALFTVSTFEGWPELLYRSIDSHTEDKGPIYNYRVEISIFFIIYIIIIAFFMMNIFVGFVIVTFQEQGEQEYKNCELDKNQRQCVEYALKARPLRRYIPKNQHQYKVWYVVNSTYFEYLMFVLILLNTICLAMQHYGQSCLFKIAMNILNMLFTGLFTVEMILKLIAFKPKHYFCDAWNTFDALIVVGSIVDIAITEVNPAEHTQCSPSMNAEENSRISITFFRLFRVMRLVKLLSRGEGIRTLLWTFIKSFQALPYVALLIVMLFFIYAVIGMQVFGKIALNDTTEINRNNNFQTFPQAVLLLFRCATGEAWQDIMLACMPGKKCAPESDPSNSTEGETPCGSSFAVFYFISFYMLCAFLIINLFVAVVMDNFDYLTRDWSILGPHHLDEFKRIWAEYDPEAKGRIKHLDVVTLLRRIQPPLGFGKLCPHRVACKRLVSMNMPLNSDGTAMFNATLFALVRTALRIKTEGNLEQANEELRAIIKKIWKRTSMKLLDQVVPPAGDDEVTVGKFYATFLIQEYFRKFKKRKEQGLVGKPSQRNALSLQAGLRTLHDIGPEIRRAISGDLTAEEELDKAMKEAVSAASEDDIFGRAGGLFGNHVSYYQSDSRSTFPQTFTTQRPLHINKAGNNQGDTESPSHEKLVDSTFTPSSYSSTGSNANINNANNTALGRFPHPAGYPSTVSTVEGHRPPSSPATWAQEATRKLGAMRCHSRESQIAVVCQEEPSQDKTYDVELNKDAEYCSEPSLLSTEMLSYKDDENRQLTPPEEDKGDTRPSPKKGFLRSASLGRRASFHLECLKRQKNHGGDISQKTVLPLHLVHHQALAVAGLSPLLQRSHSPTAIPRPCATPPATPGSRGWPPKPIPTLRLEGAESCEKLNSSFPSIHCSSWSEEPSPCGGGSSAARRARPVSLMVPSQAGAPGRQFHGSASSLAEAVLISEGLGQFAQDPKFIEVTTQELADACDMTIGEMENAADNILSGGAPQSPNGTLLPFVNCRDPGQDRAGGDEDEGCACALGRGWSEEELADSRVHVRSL
Sequence of Human Cav3.2 (O95180 whole entry): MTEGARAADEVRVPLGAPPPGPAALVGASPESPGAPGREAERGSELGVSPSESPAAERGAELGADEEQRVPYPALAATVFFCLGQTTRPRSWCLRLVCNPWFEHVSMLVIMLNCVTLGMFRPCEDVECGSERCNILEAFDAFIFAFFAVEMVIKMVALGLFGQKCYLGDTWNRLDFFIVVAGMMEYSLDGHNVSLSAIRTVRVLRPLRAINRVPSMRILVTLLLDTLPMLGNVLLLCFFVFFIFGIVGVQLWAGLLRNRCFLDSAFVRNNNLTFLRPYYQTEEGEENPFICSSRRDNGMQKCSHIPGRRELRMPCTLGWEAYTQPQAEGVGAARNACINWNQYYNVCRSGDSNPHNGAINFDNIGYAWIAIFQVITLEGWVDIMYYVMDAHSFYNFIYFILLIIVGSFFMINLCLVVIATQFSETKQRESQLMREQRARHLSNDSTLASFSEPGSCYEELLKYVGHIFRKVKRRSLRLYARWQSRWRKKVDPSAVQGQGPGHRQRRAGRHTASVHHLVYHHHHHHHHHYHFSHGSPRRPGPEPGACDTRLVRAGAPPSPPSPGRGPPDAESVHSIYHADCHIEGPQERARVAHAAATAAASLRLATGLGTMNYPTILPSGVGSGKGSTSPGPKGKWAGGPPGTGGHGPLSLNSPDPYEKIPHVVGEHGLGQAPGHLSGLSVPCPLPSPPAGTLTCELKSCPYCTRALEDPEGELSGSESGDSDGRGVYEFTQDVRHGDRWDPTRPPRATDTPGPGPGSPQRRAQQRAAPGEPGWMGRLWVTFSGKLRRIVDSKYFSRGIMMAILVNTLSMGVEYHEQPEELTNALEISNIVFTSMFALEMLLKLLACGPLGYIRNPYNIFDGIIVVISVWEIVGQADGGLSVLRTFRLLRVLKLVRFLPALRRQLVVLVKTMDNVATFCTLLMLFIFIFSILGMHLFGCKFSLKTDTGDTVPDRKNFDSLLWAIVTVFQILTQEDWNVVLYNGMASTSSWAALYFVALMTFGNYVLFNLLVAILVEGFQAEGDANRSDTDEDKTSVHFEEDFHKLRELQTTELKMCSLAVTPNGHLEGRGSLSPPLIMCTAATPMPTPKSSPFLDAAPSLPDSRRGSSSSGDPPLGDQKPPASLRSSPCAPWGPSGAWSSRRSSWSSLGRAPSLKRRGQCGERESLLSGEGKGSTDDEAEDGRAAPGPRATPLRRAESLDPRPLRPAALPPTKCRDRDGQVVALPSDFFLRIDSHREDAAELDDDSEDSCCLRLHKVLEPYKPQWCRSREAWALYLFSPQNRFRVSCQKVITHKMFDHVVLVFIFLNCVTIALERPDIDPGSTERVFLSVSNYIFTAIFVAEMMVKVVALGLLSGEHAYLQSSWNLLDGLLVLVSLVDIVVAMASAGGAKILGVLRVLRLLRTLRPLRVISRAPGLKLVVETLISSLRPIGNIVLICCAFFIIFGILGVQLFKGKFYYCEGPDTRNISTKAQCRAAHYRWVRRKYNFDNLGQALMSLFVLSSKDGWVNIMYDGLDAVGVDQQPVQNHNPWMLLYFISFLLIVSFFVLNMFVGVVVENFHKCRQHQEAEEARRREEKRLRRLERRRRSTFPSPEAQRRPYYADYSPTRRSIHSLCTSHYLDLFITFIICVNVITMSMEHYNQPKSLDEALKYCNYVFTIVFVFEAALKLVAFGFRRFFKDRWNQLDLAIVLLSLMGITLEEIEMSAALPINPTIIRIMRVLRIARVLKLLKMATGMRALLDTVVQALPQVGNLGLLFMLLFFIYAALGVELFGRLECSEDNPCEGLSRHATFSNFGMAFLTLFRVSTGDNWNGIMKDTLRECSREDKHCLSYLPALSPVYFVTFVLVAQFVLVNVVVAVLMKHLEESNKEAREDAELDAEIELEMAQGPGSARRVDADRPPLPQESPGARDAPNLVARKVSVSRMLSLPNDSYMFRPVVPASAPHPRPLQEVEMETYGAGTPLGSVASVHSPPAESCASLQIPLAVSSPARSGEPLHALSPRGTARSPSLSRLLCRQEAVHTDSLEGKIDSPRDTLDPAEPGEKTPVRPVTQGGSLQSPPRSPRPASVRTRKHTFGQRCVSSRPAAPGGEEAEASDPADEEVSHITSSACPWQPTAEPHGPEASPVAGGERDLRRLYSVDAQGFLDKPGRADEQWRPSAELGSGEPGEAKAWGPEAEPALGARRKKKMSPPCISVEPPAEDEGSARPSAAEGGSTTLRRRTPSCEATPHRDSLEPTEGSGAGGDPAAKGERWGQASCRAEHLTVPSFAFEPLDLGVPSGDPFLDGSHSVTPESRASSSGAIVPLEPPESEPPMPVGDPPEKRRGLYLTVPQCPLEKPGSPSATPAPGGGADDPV

Structure (SMILES) | Max ΔMAP (mmHg ± SEM) (SHRs) [mmHg] | ΔMAP > 20 (mmHg) Duration time of action (SHRs) [h] | ΔMAP > 20 (mmHg) Duration time of action [1] [h] | Max ΔMAP (mmHg ± SEM) [1] [mmHg] | IC50 (Human Cav3.2) [µM] | IC50 [2] [µM]
COC(=O)C1=C(C)NC(C)=C(C(=O)OC2(C)CCN(Cc3ccccc3)C2)C1c1cccc([N+](=O)[O-])c1 (stereo not shown) [Compound 1, 3-(1-benzyl-3-methylpyrrolidin-3-yl) 5-methyl 2,6-dimethyl-4-(3-nitrophenyl)-1,4-dihydropyridine-3,5-dicarboxylate] | 47 ± 7 | 6 |  |  |  | 
COC(=O)C1=C(C)NC(C)=C(C(=O)OC2(C)CCN(CCCc3ccccc3)C2)[C@H]1c1cccc([N+](=O)[O-])c1 (stereo partly drawn) [Compound 21, (4S)-3-[3-methyl-1-(3-phenylpropyl)pyrrolidin-3-yl] 5-methyl 2,6-dimethyl-4-(3-nitrophenyl)-1,4-dihydropyridine-3,5-dicarboxylate] |  |  | 24 | 28 ± 12 |  | 
COC(=O)C1=C(C)NC(C)=C(C(=O)OC2(C)CCN(CCC(c3ccccc3)c3ccccc3)C2)C1c1cccc([N+](=O)[O-])c1 (stereo not shown) [Compound 2, 3-[1-(3,3-diphenylpropyl)-3-methylpyrrolidin-3-yl] 5-methyl 2,6-dimethyl-4-(3-nitrophenyl)-1,4-dihydropyridine-3,5-dicarboxylate] | 53 ± 7 | 16 |  |  |  | 
COC(=O)C1=C(C)NC(C)=C(C(=O)OCCN2CCN(C(c3ccccc3)c3ccccc3)CC2)C1c1cccc([N+](=O)[O-])c1 (stereo not shown) [manidipine, reference compound] |  |  | 23 | 74 ± 5 |  | 
COC(=O)C1=C(C)NC(C)=C(C(=O)O[C@@]2(C)CCN(CC(c3ccccc3)c3ccccc3)C2)[C@H]1c1cccc([N+](=O)[O-])c1 [Compound 20, (S)-3-[(S)-1-(2,2-diphenylethyl)-3-methylpyrrolidin-3-yl] 5-methyl 2,6-dimethyl-4-(3-nitrophenyl)-1,4-dihydropyridine-3,5-dicarboxylate] |  |  | 24 | 80 ± 14 | 66.9 | 
COC(=O)C1=C(C)NC(C)=C(C(=O)OC2(C)CCN(Cc3cc(F)cc(F)c3)C2)[C@H]1c1cccc([N+](=O)[O-])c1 (stereo partly drawn) [Compound 23, (4S)-3-[1-(3,5-difluorobenzyl)-3-methylpyrrolidin-3-yl]5-methyl 2,6-dimethyl-4-(3-nitrophenyl)-1,4-dihydropyridine-3,5-dicarboxylate] |  |  | 24 | 60 ± 12 |  | 
COC(=O)C1=C(C)NC(C)=C(C(=O)OC2(C)CCN(CC(c3ccccc3)c3ccccc3)C2)[C@H]1c1cccc([N+](=O)[O-])c1 (stereo partly drawn) [Compound 18, (4S)-3-[1-(2,2-diphenylethyl)-3-methylpyrrolidin-3-yl] 5-methyl 2,6-dimethyl-4-(3-nitrophenyl)-1,4-dihydropyridine-3,5-dicarboxylate] |  |  | 24 | 69 ± 4 |  | 
COC(=O)C1=C(C)NC(C)=C(C(=O)OC2(C)CCN(CCC(c3ccccc3)c3ccccc3)C2)[C@@H]1c1cccc([N+](=O)[O-])c1 (stereo partly drawn) [Compound 14, (4R)-3-[1-(3,3-diphenylpropyl)-3-methylpyrrolidin-3-yl] 5-methyl 2,6-dimethyl-4-(3-nitrophenyl)-1,4-dihydropyridine-3,5-dicarboxylate] |  |  |  |  |  | 0.59
CC1=C(C(=O)OCCN(Cc2ccccc2)c2ccccc2)C(c2cccc([N+](=O)[O-])c2)C(P2(=O)OCC(C)(C)CO2)=C(C)N1 (stereo not shown) [efonidipine, reference compound] |  |  | 10 | 69 ± 5 |  | 
COC(=O)C1=C(C)NC(C)=C(C(=O)O[C@]2(C)CCN(CC(c3ccccc3)c3ccccc3)C2)[C@H]1c1cccc([N+](=O)[O-])c1 [Compound 19, (S)-3-[(R)-1-(2,2-diphenylethyl)-3-methylpyrrolidin-3-yl] 5-methyl 2,6-dimethyl-4-(3-nitrophenyl)-1,4-dihydropyridine-3,5-dicarboxylate] |  |  | 24 | 72 ± 8 | 75.4 | 
CC1=C(C(=O)OC(C)C)C(c2cccc([N+](=O)[O-])c2)C(C(=O)OC2CN(C(c3ccccc3)c3ccccc3)C2)=C(N)N1 (stereo not shown) [azelnidipine, reference compound] | 40 ± 5 | 11 | 24 | 79 ± 13 |  | 1.39
COC(=O)C1=C(C)NC(C)=C(C(=O)OC2(C)CCN(CCC(c3ccccc3)c3ccccc3)C2)[C@H]1c1cccc([N+](=O)[O-])c1 (stereo partly drawn) [Compound 15, (4S)-3-[1-(3,3-diphenylpropyl)-3-methylpyrrolidin-3-yl] 5-methyl 2,6-dimethyl-4-(3-nitrophenyl)-1,4-dihydropyridine-3,5-dicarboxylate] | 56 ± 1 | 14 |  |  |  | 1.28
COC(=O)C1=C(C)NC(C)=C(C(=O)OC2(C)CCN(CCc3ccccc3)C2)[C@H]1c1cccc([N+](=O)[O-])c1 (stereo partly drawn) [Compound 22, (4S)-3-(3-methyl-1-phenylethylpyrrolidin-3-yl) 5-methyl 2,6-dimethyl-4-(3-nitrophenyl)-1,4-dihydropyridine-3,5-dicarboxylate] |  |  | 24 | 43 ± 7 |  | 
COC(=O)C1=C(C)NC(C)=C(C(=O)OC2(C)CCN(C(c3ccccc3)c3ccccc3)C2)[C@H]1c1cccc([N+](=O)[O-])c1 (stereo partly drawn) [Compound 26, (4S)-3-[1-diphenylmethyl-3-methylpyrrolidin-3-yl]5-methyl 2,6-dimethyl-4-(3-nitrophenyl)-1,4-dihydropyridine-3,5-dicarboxylate] |  |  | 24 | 55 ± 13 |  | 
COC(=O)C1=C(C)NC(C)=C(C(=O)O[C@]2(C)CCN(CCC(c3ccccc3)c3ccccc3)C2)[C@H]1c1cccc([N+](=O)[O-])c1 [Compound 17, (S)-3-[(R)-1-(3,3-diphenylpropyl)-3-methylpyrrolidin-3-yl] 5-methyl 2,6-dimethyl-4-(3-nitrophenyl)-1,4-dihydropyridine-3,5-dicarboxylate] | 57 ± 5 | 16 |  |  | 9.41 | 0.93
